Results: publication PMC6414531, “Contrasting in vitro and in vivo methanol oxidation activities of lanthanide-dependent alcohol dehydrogenases XoxF1 and ExaF from Methylobacterium extorquens AM1” (Scientific Reports, 2019)

Tests used:
XoxF1 MDH (XoxF1-La) [1] = target: T1, XoxF1 MDH (XoxF1-La) (Methylorubrum extorquens, UniProt C5B120); test: UV-visible spectroscopy of purified enzyme; assay type: binding; conditions: co-purified prosthetic group
T1 construct: C-terminal hexahistidine tag with rTEV site, tag cleaved; 1:1 La3+ per protomer, PQQ-containing
T1 sequence (C5B120 22-601): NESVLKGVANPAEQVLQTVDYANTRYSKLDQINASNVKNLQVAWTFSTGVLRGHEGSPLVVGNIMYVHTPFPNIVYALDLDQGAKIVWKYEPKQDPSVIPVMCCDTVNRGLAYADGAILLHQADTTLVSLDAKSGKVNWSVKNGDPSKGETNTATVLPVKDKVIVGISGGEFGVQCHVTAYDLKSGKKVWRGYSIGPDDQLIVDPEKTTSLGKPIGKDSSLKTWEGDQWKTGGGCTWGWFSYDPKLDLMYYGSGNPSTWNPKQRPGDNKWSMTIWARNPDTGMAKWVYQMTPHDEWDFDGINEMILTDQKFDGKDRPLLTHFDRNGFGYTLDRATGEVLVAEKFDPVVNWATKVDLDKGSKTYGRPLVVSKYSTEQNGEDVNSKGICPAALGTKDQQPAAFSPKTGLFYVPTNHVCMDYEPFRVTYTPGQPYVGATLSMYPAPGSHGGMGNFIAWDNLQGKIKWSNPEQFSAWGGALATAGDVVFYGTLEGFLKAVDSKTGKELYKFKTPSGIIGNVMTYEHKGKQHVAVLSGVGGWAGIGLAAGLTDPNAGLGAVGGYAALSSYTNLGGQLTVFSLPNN

XoxF1 MDH (XoxF1-La) [2] = target: T1, XoxF1 MDH (XoxF1-La); test: PMS-mediated DCPIP reduction at […] nm, Michaelis-Menten fit; assay type: biochemical; conditions: La3+-loaded enzyme (1:1), PQQ; PMS/DCPIP as electron acceptors
[3] = target: T2, ExaF (ExaF-La, Ln-dependent ethanol dehydrogenase) (Methylorubrum extorquens, UniProt C5AXV8); test: PMS-mediated DCPIP reduction in cell-free extract; assay type: biochemical; conditions: MDH-3 mutant strain (lacks MxaF, XoxF1, XoxF2), grown with methanol and La3+
T2 construct: native enzyme in cell-free extract of MDH-3 mutant grown with methanol and La3+
T2 sequence (C5AXV8 27-587): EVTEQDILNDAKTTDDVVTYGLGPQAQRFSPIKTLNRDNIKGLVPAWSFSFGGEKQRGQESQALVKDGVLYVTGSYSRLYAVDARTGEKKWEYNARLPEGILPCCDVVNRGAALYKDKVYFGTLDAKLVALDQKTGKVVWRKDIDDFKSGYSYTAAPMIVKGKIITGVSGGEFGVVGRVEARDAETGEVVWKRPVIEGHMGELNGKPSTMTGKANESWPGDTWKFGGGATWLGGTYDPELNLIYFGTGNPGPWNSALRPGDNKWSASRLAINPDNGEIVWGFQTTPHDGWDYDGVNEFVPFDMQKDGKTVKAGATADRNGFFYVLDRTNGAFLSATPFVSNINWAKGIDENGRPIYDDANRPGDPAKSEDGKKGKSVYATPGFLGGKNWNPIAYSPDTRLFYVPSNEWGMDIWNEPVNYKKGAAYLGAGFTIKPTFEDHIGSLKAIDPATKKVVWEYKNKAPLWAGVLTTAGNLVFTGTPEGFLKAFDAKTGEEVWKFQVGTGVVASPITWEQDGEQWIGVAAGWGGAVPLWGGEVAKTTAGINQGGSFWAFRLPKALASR

purified protein = substrate: CCO; test: purified protein; conditions: La3+-loaded enzyme (1:1), PQQ; PMS/DCPIP as electron acceptors

O=C(O)c1cc(C(=O)O)c2c(n1)C(=O)C(=O)c1cc(C(=O)O)[nH]c1-2 [PQQ]
molar ratio (XoxF1 MDH (XoxF1-La) [1]): PQQ was detected as a prosthetic group via UV-visible spectroscopy

CO [methanol]
Km (XoxF1 MDH (XoxF1-La) [2]): 0.044 ± 0.005 mM

C=O [formaldehyde]
Km (XoxF1 MDH (XoxF1-La) [2]): 0.096 ± 0.006 mM | specific activity [3]: confirming that ExaF can oxidize formaldehyde in vivo

B1: XoxF1 MDH (XoxF1-La) (Methylorubrum extorquens AM1) (protein)
chain: T1 sequence (C5B120 22-601)
Km (purified protein): 0.067 ± 0.003 mM | Vmax (purified protein): 6.21 µmol/min/mg | kcat/Km (purified protein): 194000 M⁻¹ s⁻¹
